Target: T1, human LPA1 receptor (Homo sapiens, UniProt Q92633)
T1 construct: TEV protease site; Gal4-VP16 transcription factor; host or cells: Tango EDG2-bla U2OS cells
Experiment: Beta-arrestin recruitment assay to determine IC50 values for human LPAR1
Assay type: cell-based
Settings: Tango EDG2-bla U2OS cells, antagonist assay, LPA 18:1 500 nM final
In short: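 Tango EDG2-bla U2OS cells were preincubated 30 min at 37 °C with compound. They were then stimulated with 500 nM (final) LPA 18:1 for 16 h. β-Lactamase reporter read by LiveBLAzer FRET substrate (2 h) as the 460/530 nm ratio; IC50 from 4-parameter logistic fit.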

T1 sequence (Q92633 whole entry, the tested form may be a part): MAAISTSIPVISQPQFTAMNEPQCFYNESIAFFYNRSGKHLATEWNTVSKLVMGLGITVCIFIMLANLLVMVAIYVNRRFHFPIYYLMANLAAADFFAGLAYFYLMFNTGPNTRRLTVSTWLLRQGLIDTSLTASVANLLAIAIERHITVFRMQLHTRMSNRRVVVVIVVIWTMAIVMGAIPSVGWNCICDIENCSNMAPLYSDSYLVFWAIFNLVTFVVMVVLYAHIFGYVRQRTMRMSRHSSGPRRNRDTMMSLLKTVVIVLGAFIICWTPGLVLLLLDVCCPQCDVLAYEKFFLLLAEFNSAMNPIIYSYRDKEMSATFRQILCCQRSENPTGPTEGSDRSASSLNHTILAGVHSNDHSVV

SMILES	IC50
COc1cc(Cl)ncc1NC(=O)C1(c2ccccc2C(C)C)CN(c2c(O)c(=O)c2=O)C1 [Example 27, N-(6-chloro-4-methoxypyridin-3-yl)-1-(2-hydroxy-3,4-dioxocyclobut-1-en-1-yl)-3-(2-isopropylphenyl)azetidine-3-carboxamide]	55 nM
COc1cc(Cl)ncc1NC(=O)C1(c2ccccc2C(C)C)CN(C2=NC(=O)CO2)C1 [Example 26, N-(6-chloro-4-methoxypyridin-3-yl)-3-(2-isopropylphenyl)-1-(4-oxo-4,5-dihydrooxazol-2-yl)azetidine-3-carboxamide]	12 nM
COc1cc(Cl)ncc1NC(=O)C1(c2ccccc2C(C)C)CN(CCNS(N)(=O)=O)C1 [Example 18-28, N-(6-chloro-4-methoxypyridin-3-yl)-3-(2-isopropylphenyl)-1-(2-(sulfamoylamino)ethyl)azetidine-3-carboxamide]	17 nM
COc1cc(Cl)ncc1NC(=O)C1(c2ccccc2C(C)C)CN(C(=O)c2noc(O)n2)C1 [Example 19-6, N-(6-chloro-4-methoxypyridin-3-yl)-1-(5-hydroxy-1,2,4-oxadiazole-3-carbonyl)-3-(2-isopropylphenyl)azetidine-3-carboxamide]	61 nM
CCOC(=O)CCNC(=O)N1CC(C(=O)Nc2cnc(Cl)cc2OC)(c2ccccc2C(C)C)C1 [Example 22-13, ethyl 3-(3-((6-chloro-4-methoxypyridin-3-yl)carbamoyl)-3-(2-isopropylphenyl)azetidine-1-carboxamido)propanoate]	7 nM
COC(=O)C(C)(C)CCN1CCC(C(=O)Nc2cnc(Cl)cc2OC)(c2ccccc2C(C)C)CC1 [Example 18-21, methyl 4-(4-((6-chloro-4-methoxypyridin-3-yl)carbamoyl)-4-(2-isopropylphenyl)piperidin-1-yl)-2,2-dimethylbutanoate]	19 nM
COc1cc(C)ncc1NC(=O)C1(c2ccccc2C(C)C)CNC1 [Example 11, 3-(2-isopropylphenyl)-N-(4-methoxy-6-methylpyridin-3-yl)azetidine-3-carboxamide]	36 nM
COc1cc(Cl)ncc1NC(=O)C1(c2ccccc2C(C)C)CN(C(=O)CS(C)(=O)=O)C1 [Example 19-16, N-(6-chloro-4-methoxypyridin-3-yl)-3-(2-isopropylphenyl)-1-(2-(methylsulfonyl)acetyl)azetidine-3-carboxamide]	54 nM
COc1cc(Cl)ncc1NC(=O)C1(c2ccccc2C(C)C)CN(S(=O)(=O)CCO)C1 [Example 20-3, N-(6-chloro-4-methoxypyridin-3-yl)-1-((2-hydroxyethyl)sulfonyl)-3-(2-isopropylphenyl)azetidine-3-carboxamide]	21 nM
COc1cc(Cl)ncc1NC(=O)C1(c2ccccc2C(C)C)CN(C(=O)NC(C)C)C1 [Example 22-4, N3-(6-chloro-4-methoxypyridin-3-yl)-N1-isopropyl-3-(2-isopropylphenyl)azetidine-1,3-dicarboxamide]	9 nM
COc1cc(Cl)ncc1NC(=O)C1(c2ccccc2C(C)C)CN(c2cc(C)nc(C)c2)C1 [Example 24-6, N-(6-chloro-4-methoxypyridin-3-yl)-1-(2,6-dimethylpyridin-4-yl)-3-(2-isopropylphenyl)azetidine-3-carboxamide]	91 nM
COc1cc(C(F)(F)F)ncc1NC(=O)C1(c2ccccc2C(C)C)CNC1 [Example 12, 3-(2-isopropylphenyl)-N-(4-methoxy-6-(trifluoromethyl)pyridin-3-yl)azetidine-3-carboxamide]	1200 nM
COc1cc(Cl)ncc1NC(=O)C1(c2cc(F)ccc2C(C)C)CN(S(N)(=O)=O)C1 [Example 21-15, N-(6-chloro-4-methoxypyridin-3-yl)-3-(5-fluoro-2-isopropylphenyl)-1-sulfamoylazetidine-3-carboxamide]	5 nM
COc1cc(F)ncc1NC(=O)C1(c2ccccc2C(C)C)CN(C(=O)CC(C)(C)C(=O)O)C1 [Example 19-23, 4-(3-((6-fluoro-4-methoxypyridin-3-yl)carbamoyl)-3-(2-isopropylphenyl)azetidin-1-yl)-2,2-dimethyl-4-oxobutanoic acid]	100 nM
COc1cc(Br)ncc1NC(=O)C1(c2ccccc2C(C)C)CN(C(=O)CC(C)(C)C(=O)O)C1 [Example 19-19, 4-(3-((6-bromo-4-methoxypyridin-3-yl)carbamoyl)-3-(2-isopropylphenyl)azetidin-1-yl)-2,2-dimethyl-4-oxobutanoic acid]	21 nM
COc1cc(Cl)ncc1NC(=O)C1(c2ccccc2C(C)C)CN(C(=O)N2CCOCC2)C1 [Example 22-16, N-(6-chloro-4-methoxypyridin-3-yl)-3-(2-isopropylphenyl)-1-(morpholine-4-carbonyl)azetidine-3-carboxamide]	201 nM
COc1cc(Cl)ncc1NC(=O)C1(c2ccccc2C(C)C)CN(C(=O)c2cc(O)no2)C1 [Example 19-5, N-(6-chloro-4-methoxypyridin-3-yl)-1-(3-hydroxyisoxazole-5-carbonyl)-3-(2-isopropylphenyl)azetidine-3-carboxamide]	270 nM

SMILES	IC50
COc1cc(Cl)ncc1NC(=O)C1(c2ccccc2C(C)C)CN(S(=O)(=O)CCN(C)C)C1 [Example 20-4, N-(6-chloro-4-methoxypyridin-3-yl)-1-((2-(dimethylamino)ethyl)sulfonyl)-3-(2-isopropylphenyl)azetidine-3-carboxamide]	472 nM
COc1cc(Cl)ncc1NC(=O)C1(c2nc(F)ccc2C(C)C)CNC1 [Example 16, N-(6-chloro-4-methoxypyridin-3-yl)-3-(6-fluoro-3-isopropylpyridin-2-yl)azetidine-3-carboxamide]	419 nM
COc1cc(Cl)ncc1NC(=O)C1(c2ccccc2C(C)C)CNC1 [Example 3, N-(6-chloro-4-methoxypyridin-3-yl)-3-(2-isopropylphenyl)azetidine-3-carboxamide]	4 nM
COc1cc(Cl)ncc1NC(=O)C1(c2ccccc2C(C)C)CN(c2ncncc2F)C1 [Example 24-10, N-(6-chloro-4-methoxypyridin-3-yl)-1-(5-fluoropyrimidin-4-yl)-3-(2-isopropylphenyl)azetidine-3-carboxamide]	2 nM
COc1cc(Cl)ncc1NC(=O)C1(c2ccccc2C2CCCC2)CNC1 [Example 17, N-(6-chloro-4-methoxypyridin-3-yl)-3-(2-cyclopentylphenyl)azetidine-3-carboxamide]	3 nM
COCCS(=O)(=O)N1CC(C(=O)Nc2cnc(Cl)cc2OC)(c2ccccc2C(C)C)C1 [Example 20-2, N-(6-chloro-4-methoxypyridin-3-yl)-3-(2-isopropylphenyl)-1-((2-methoxyethyl)sulfonyl)azetidine-3-carboxamide]	608 nM
CCOC(=O)c1coc(N2CC(C(=O)Nc3cnc(Cl)cc3OC)(c3ccccc3C(C)C)C2)n1 [Example 24-25, ethyl 2-(3-((6-chloro-4-methoxypyridin-3-yl)carbamoyl)-3-(2-isopropylphenyl)azetidin-1-yl)oxazole-4-carboxylate]	15 nM
COc1cc(Cl)ncc1NC(=O)C1(c2ccccc2C(C)C)CN(c2ccncn2)C1 [Example 24-11, N-(6-chloro-4-methoxypyridin-3-yl)-3-(2-isopropylphenyl)-1-(pyrimidin-4-yl)azetidine-3-carboxamide]	5 nM
COc1cc(Cl)ncc1NC(=O)C1(c2ccccc2C(C)C)CN(C(=O)Cc2c[nH]nc2O)C1 [Example 19-12, N-(6-chloro-4-methoxypyridin-3-yl)-1-(2-(3-hydroxy-1H-pyrazol-4-yl)acetyl)-3-(2-isopropylphenyl)azetidine-3-carboxamide]	24 nM
COc1cc(Cl)ncc1NC(=O)C1(c2ccccc2C(C)C)CN(CCC(C)(C)C(=O)O)C1 [Example 18-17, 4-(3-((6-chloro-4-methoxypyridin-3-yl)carbamoyl)-3-(2-isopropylphenyl)azetidin-1-yl)-2,2-dimethylbutanoic acid]	27 nM
COCCOc1cc(Cl)ncc1NC(=O)C1(c2ccccc2C(C)C)CNC1 [Example 8, N-(6-chloro-4-(2-methoxyethoxy)pyridin-3-yl)-3-(2-isopropylphenyl)azetidine-3-carboxamide]	252 nM
COc1cc(Br)ncc1NC(=O)C1(c2ccccc2C(C)C)CNC1 [Example 4, N-(6-bromo-4-methoxypyridin-3-yl)-3-(2-isopropylphenyl)azetidine-3-carboxamide]	6 nM
COc1cc(Cl)ncc1NC(=O)C1(c2ccccc2C(C)C)CN(CC(=O)O)C1 [Example 18-6, 2-(3-((6-chloro-4-methoxypyridin-3-yl)carbamoyl)-3-(2-isopropylphenyl)azetidin-1-yl)acetic acid]	128 nM
CC(C)Oc1cc(Cl)ncc1NC(=O)C1(c2ccccc2C(C)C)CN(S(N)(=O)=O)C1 [Example 21-4, N-(6-chloro-4-isopropoxypyridin-3-yl)-3-(2-isopropylphenyl)-1-sulfamoylazetidine-3-carboxamide]	1 nM
COc1cc(C)ncc1NC(=O)C1(c2ccccc2C(C)C)CN(S(N)(=O)=O)C1 [Example 21-10, 3-(2-isopropylphenyl)-N-(4-methoxy-6-methylpyridin-3-yl)-1-sulfamoylazetidine-3-carboxamide]	37 nM
COc1cc(Cl)ncc1NC(=O)C1(c2ccccc2C(C)C)CN(c2nc(C)ncc2F)C1 [Example 24-16, N-(6-chloro-4-methoxypyridin-3-yl)-1-(5-fluoro-2-methylpyrimidin-4-yl)-3-(2-isopropylphenyl)azetidine-3-carboxamide]	13 nM
COc1cc(Cl)ncc1NC(=O)C1(c2ccccc2C(C)C)CN(c2cc(F)ccn2)C1 [Example 24-7, N-(6-chloro-4-methoxypyridin-3-yl)-1-(4-fluoropyridin-2-yl)-3-(2-isopropylphenyl)azetidine-3-carboxamide]	1 nM
